Experiment [1] can be described thus: enhancers of respiration in Yfh1-depleted yeast, dose response, Friedreich's ataxia, plus single-dose screen (AID 1465).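 Further: yeast depleted of Yfh1p frataxin homolog grown on glycerol needing respiration; WST-1 tetrazolium dye reduction as measure of cellular dehydrogenase metabolic activity.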 Format: functional.
In experiment [2] the target is T1, Insulin-degrading enzyme (Homo sapiens, UniProt P14735).
T1 sequence (P14735 whole entry): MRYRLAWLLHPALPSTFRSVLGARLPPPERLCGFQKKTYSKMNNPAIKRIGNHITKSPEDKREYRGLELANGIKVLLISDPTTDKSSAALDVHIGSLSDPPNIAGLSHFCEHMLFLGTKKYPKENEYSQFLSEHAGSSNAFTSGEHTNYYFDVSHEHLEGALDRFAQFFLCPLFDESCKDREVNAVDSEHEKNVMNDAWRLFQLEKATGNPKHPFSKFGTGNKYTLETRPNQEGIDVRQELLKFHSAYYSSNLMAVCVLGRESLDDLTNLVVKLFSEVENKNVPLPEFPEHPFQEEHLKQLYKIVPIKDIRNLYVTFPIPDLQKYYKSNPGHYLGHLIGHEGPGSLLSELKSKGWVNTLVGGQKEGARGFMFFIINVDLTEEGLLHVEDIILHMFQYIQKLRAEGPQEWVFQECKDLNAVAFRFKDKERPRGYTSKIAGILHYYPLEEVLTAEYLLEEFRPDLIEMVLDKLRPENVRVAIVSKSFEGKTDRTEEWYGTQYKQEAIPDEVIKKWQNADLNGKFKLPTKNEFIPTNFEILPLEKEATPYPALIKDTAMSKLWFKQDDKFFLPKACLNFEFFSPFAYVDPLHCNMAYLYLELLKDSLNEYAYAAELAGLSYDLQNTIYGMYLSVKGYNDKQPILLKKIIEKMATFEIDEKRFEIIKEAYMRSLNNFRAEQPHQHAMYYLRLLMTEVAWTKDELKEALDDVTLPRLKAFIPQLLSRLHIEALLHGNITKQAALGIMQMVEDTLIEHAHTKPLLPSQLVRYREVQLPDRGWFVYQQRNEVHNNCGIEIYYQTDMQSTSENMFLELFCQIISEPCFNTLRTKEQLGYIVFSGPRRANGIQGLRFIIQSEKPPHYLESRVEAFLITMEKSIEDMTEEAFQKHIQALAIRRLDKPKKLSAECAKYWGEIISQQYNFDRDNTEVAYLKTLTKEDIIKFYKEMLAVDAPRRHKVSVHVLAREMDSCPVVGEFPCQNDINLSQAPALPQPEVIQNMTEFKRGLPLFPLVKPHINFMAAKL
Put plainly: Dose Response: Fluorescence polarization-based cell-based high throughput dose response assay for inhibitors of insulin-degrading enzyme (IDE). [Related pubchem assays: 434962 (Primary screen (IDE inhibitors in singlicate)), 449730 (Counterscreen (Cytotoxicity in triplicate)), 435028 (Confirmation (IDE inhibitors in triplicate)), 434984 (Summary …. Format: functional. (Polarisation of emitted light reports the rotation of a fluorescent probe.)

Experiment [3] has as its target Troponin, cardiac muscle (Homo sapiens, UniProt P19429+P45379+P63316). Nature of the experiment: Fluorescence-based biochemical high throughput dose response assay for activators of the calcium sensitivity of cardiac Regulated Thin Filaments (RTF). [Related pubchem assays (depositor defined):AID493008, AID493018, AID504382, AID504383]. Type of experiment: protein-complex assay.

A short description of experiment [4]: Counterscreen for IDE inhibitors: Luminescence-based cell-based high throughput dose response assay to identify compounds that are cytotoxic to HEK cells. [Related pubchem assays: 434962 (Primary screen (IDE inhibitors in singlicate)), 449730 (Counterscreen (Cytotoxicity in triplicate)), 435028 (Confirmation (IDE inhibitors in triplicate)) …. Format: functional. As to conditions: HEK293. In general terms: Counterscreens check selectivity or assay interference.

Experiment [5] addresses Lysine-specific demethylase 4C (Homo sapiens, UniProt Q9H3R0). Nature of the experiment: GASC-1 (JMJD2C) histone demethylase inhibitors, dose response, biochemical, DELFIA europium, cherry-picked samples (AID 488835). Format: functional.
Experiment [6] in a line: cells. Format: functional, cell-based. As to conditions: HEK-CNG.
In experiment [7] the target is Galanin receptor type 3 (Homo sapiens, UniProt O60755). Put plainly: Fluorescence-based cell-based primary high throughput dose response assay to identify antagonists of the Galanin Receptor 3 (GalR3). Type of experiment: functional.
The nature of experiment [8]: NIH-3T3 fibroblast cytotoxicity, dose response, cytotoxicity control, cell-based, fluorescence, Alamar Blue, secondary assay (AID 2327).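 Further: NIH-3T3 mouse fibroblasts cultured with fluconazole at 8 µg/mL.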 Type of experiment: functional. (In general: Resazurin is reduced to fluorescent resorufin, in cell work by metabolically active cells.)
The target of experiment [9] is Exodeoxyribonuclease V (Escherichia coli (strain K12), UniProt P04993+P07648+P08394). Nature of the experiment: E. coli RecBCD inhibitors, dose response, counter-screen for AddAB inhibitor project, absorbance, V66 E. coli, mutant T4 phage (AID 492957). Format: functional, cell-based, Escherichia coli str. K-12 substr. MG1655.
Experiment [10] in a line: cells. Type of experiment: functional, cell-based.
Experiment [11] relates to INS1. Put plainly: beta cell apoptosis inhibitors, cytokine rescue, dose response, luminescence, retest (AID 449756).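 Further: cell death triggered by IL-1 beta plus TNF-alpha plus IFN-gamma mixture; protective hits raise ATP signal compared with cytokine alone wells.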 The note with it: Rattus norvegicus. Type of experiment: functional, cell-based.
The nature of experiment [12]: C. albicans growth with fluconazole, confirmation, fluorescence, retest (AID 2467). Format: functional, cell-based.
A short description of experiment [13]: Counterscreen for AddAB inhibitors: absorbance-based bacterial cell-based high throughput dose response assay for inhibitors of bacterial viability. [Related pubchem assays (depositor defined):AID435030, AID449728, AID449731, AID488942, AID488955, AID488956]. Format: functional.
Experiment [14] is described as follows: cells. Format: functional, cell-based. The source holds these as a separate data set.
The target of experiment [15] is T2, Protein RecA (Mycobacterium tuberculosis, UniProt P9WHJ3).
T2 sequence (P9WHJ3 whole entry): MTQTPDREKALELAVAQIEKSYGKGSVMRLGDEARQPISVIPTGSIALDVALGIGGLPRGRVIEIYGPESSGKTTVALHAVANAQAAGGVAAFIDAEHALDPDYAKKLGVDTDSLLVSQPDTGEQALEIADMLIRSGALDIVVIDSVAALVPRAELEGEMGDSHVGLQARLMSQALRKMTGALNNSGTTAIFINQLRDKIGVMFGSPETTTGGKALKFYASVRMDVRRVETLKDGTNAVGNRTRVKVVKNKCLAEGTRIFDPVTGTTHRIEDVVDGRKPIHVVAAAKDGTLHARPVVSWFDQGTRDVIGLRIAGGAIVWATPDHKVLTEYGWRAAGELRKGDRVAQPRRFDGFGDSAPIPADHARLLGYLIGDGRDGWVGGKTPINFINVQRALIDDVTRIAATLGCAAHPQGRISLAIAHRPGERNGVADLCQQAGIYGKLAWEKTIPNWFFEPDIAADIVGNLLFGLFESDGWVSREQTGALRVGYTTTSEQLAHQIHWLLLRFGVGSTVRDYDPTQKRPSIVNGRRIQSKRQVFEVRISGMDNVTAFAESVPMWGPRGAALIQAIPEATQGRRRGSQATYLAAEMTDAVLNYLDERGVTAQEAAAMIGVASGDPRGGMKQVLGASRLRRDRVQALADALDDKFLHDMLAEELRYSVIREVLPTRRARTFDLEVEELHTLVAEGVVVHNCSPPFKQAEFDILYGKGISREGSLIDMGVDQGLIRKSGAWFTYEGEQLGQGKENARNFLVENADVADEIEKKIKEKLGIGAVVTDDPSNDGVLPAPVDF
Put plainly: Fluorescence Cell-Free Homogeneous Dose Retest to Identify Inhibitors of RecA-Intein Splicing Activity. [Related pubchem assays (depositor defined):AID2097, AID2223, AID489010, AID492950]. Format: functional.

Experiment [16] can be described thus: A cytotoxicity screen of small molecule inhibitors of the PhoP region in Salmonella typhi identified in the primary screen. [Related pubchem assays: 1850, 1864, 1985 ]. Format: functional.
Experiment [17] has as its target T3, Replicative DNA helicase DnaB (Mycobacterium tuberculosis, UniProt P9WMR3).
T3 sequence (P9WMR3 whole entry): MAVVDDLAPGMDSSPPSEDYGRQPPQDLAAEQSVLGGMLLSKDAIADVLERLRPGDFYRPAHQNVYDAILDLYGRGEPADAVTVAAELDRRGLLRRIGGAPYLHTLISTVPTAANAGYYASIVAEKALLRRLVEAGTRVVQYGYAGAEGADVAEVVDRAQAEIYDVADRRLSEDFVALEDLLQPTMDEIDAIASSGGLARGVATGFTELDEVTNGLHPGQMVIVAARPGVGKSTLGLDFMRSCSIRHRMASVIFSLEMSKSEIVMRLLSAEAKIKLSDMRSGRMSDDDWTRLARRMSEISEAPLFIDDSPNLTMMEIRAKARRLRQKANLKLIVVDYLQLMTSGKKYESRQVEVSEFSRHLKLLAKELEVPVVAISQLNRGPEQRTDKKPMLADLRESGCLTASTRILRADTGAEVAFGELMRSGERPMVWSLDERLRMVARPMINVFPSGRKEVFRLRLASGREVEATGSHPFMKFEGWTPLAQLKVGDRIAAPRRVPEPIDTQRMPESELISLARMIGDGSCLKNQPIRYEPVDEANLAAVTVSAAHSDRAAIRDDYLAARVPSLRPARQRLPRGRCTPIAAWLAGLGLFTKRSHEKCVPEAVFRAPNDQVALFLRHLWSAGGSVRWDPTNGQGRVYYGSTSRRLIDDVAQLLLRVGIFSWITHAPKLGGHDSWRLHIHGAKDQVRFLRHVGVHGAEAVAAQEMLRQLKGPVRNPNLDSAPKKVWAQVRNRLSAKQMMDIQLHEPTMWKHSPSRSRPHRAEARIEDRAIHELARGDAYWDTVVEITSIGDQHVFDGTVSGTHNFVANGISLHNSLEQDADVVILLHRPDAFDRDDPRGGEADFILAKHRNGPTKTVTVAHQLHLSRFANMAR
Put plainly: DnaB intein splicing inhibitors, dose response, biochemical, cell-free fluorescence (AID 449749). Type of experiment: functional.

Experiment [18] deals with T4, Apoptotic protease-activating factor 1 (Homo sapiens, UniProt O14727).
T4 sequence (O14727 whole entry): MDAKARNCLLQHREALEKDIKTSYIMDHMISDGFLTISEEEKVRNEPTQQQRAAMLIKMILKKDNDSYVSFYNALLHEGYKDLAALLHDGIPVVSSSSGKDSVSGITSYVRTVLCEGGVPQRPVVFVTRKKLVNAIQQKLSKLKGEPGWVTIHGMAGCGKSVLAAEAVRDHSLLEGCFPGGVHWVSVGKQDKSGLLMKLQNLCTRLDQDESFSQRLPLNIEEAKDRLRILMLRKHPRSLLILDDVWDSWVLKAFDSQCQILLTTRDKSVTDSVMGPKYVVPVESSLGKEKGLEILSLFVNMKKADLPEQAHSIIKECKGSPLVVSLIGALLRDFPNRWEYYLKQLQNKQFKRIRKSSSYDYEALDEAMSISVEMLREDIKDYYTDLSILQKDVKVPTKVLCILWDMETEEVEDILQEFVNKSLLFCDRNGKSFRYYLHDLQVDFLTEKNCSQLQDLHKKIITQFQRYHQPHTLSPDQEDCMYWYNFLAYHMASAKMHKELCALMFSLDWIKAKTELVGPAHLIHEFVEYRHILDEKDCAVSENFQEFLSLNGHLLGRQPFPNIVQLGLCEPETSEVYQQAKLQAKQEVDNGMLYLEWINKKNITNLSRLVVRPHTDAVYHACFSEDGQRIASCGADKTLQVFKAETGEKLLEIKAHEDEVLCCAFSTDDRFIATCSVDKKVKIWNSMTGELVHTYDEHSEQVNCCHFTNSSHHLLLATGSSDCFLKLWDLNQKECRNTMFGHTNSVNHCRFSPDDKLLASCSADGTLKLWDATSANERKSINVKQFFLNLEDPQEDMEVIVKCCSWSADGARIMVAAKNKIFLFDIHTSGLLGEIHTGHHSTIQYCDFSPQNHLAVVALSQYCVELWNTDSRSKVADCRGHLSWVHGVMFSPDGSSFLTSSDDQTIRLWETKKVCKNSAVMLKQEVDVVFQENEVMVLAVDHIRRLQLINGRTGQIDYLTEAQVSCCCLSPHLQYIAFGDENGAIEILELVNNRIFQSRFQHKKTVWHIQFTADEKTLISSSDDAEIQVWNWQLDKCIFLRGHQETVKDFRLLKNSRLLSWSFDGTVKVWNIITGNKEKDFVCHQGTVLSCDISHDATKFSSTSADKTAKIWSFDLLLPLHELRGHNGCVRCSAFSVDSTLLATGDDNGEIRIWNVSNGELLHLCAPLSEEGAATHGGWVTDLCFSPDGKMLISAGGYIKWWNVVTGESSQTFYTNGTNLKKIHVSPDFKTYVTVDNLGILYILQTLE
Type of experiment: functional.

Activity calls are given as the source filed them. A value given as a limit tells only on which side of the number the result lay.

Regarding `N#C/C(=C\c1ccc(N2CCOCC2)o1)C(=O)NC1CCCCC1`, the figures for the EC50 in experiment [1] and in [3] were > 100 µM (active) and 6.89 µM (active), respectively. Further, the IC50 in experiment [2] was 8.05 µM (active); in experiment [4] it was 31.8 µM (not active).

In the case of `Cc1ccc2c(c1)N(CC(=O)NCC1CCCO1)C(=O)C(C(C)C)O2` (stereo unspecified), in experiment [5], the AC50 was 11.5 µM (active).

As for `Nc1nonc1-n1nnc(C(=O)N/N=C/c2cc(Br)ccc2O)c1CSC1=NCCS1`, the EC50 in [6] is > 29.9 µM (inactive); in experiment [8] it was 5.49 µM (active); in experiment [10] it was > 350 µM (not active); in experiment [12] it was 0.299 µM (active); in experiment [14], 12.6 µM (active). The IC50 was 1.24 µM (active) in [7], > 119 µM (inactive) in experiment [9] and > 119 µM (inactive) in [13]. Moreover, the AC50 in experiment [11] was 0.567 µM (active).

Turning to `CCCCNC1=CC(=O)C(=O)c2ccccc21`, the EC50 in experiment [15] was 0.669 µM (active); in experiment [16], > 50 µM (active). For the same compound, the IC50 in experiment [9] is > 119 µM (inactive); in experiment [13] it was > 39.5 µM (inactive); in [18], 6.49 µM (active). The AC50 in experiment [11] is 1.78 µM (active); in experiment [17], 0.575 µM (active).

A word on the EC50: it is the concentration at which the effect is half-maximal. In general, IC50 refers to the concentration needed to halve the response being measured. As a reminder, the AC50 is the concentration giving half of the maximal activity seen.

Values taken from ChEMBL document CHEMBL1201862, “PubChem BioAssay data set” (2004).
